These results are taken from patent US9486456B2, “Treatment of esophageal motility disorder using sepiapterin, tetrahydrobiopterin and derivatives thereof” (The Board of Regents of the University of Texas System, priority 2006, dated 2016).

One assay has as its system gastric tissues. Description: Nitrergic relaxation of gastric tissues after in vitro incubation (organ bath). On the set-up: species or system rat. The settings on record: DAHP 10 mM, 3 hours incubation, female control gastric tissues, n=2.
The test system of another assay is gastric LM-MPs. As to the kind of experiment: NO release from gastric LM-MP incubated with DAHP. The conditions noted are these: DAHP 10 mM, 48 hours, healthy female rat gastric LM-MP. On the procedure:
(§1) Gastric LM-MPs were incubated for 48 hrs in the presence or the absence of DAHP (10 mM) and nNOS dimerization (FIG. 9A-9B) in tissues and NO release (FIG. 9C) in the media were assessed. (n=3).
Gastric LM-MPs were incubated for 24 hours in DMEM supplemented with 2% neurobasal medium (NB27) and 1% antibiotics. The concentration of NO (micromoles/mg tissue) was measured using readily available NO kit (Cayman corporation). […] The present invention contemplates examining whether supplementation of BH4 and female sex hormones restores reduced NO release in diabetic female gastric LM-MP tissues.
(§2) The present invention examined whether treatment with DAHP in vitro uncoupled gastric nNOS dimerization and NO release in healthy female rats. Gastric longitudinal muscle-myenteric plexus (LM-MP) were incubated for 48 hours in the presence or absence of DHAP (10 mM). It was observed that inhibition of BH4 biosynthesis with DAHP decreased both nNOS dimerization (FIGS. 9A-9B) and NO release (FIG. 9C). These additional data further support the hypothesis that impaired biosynthesis of gastric BH4 accounts for the decrease in nNOS activity and nitrergic relaxation in female diabetic gastroparesis.

A further assay has as its system nNOS. As to the kind of experiment: nNOS dimerization in gastric LM-MP incubated in vitro. The conditions noted are these: DAHP 10 mM, 48 hours, healthy female rat gastric LM-MP. On the procedure:
as §1, §2

Regarding `Nc1cc(O)nc(N)n1` [DAHP, 2,4-diamino-6-hydroxypyrimidine], the “Effect on nitrergic relaxation” value in the assay on gastric tissues was “inhibited”. Besides, the “Effect on NO release” value with gastric LM-MPs was “decreased”. Moreover, the “Effect on nNOS dimerization” value with nNOS is recorded as “decreased”.
